ChEMBL document CHEMBL1125943, “Preparation of the geometric isomers of DDC, DDA, D4C and D4T as potential anti-HIV agents” (Bioorg Med Chem Lett, 1991)
pIC50: −log10 of the molar value.

Assays:
CCRF-CEM [1] = assay: Compound was tested for cellular toxicity against HIV in CEM cells at concentration up to 100 uM; IA means inactive; type: cell-based; conditions: human
CCRF-CEM [2] = assay: The inhibitory dose against HIV in CEM cells was evaluated.; type: functional, Homo sapiens; conditions: read-out: ID50 (the source's name)

Row | SMILES | Toxicity (CCRF-CEM [1]) | other results
1 | Cc1cn([C@@H]2C=C[C@H](CO)O2)c(=O)[nH]c1=O | Not Active | –
2 | Nc1ccn([C@@H]2CC[C@H](CO)O2)c(=O)n1 | – | pIC50 (CCRF-CEM [2]; Homo sapiens, CCRF-CEM): 6.18
3 | Nc1ccn([C@@H]2C=C[C@H](CO)O2)c(=O)n1 | Not Active | –
4 | Nc1ccn(C2CC[C@H](CO)O2)c(=O)n1 (single isomer, unassigned) | Not Active | –
5 | Nc1ncnc2c1ncn2[C@H]1CC[C@@H](CO)O1 (single isomer, unassigned) | Not Active | –
6 | Nc1ccn([C@H]2CC[C@@H](CO)O2)c(=O)n1 (stereo in doubt; form 1) [ZALCITABINE] | – | pIC50 (CCRF-CEM [2]): > 7.00
7 | Nc1ccn([C@H]2CC[C@@H](CO)O2)c(=O)n1 (stereo in doubt; form 2) [ZALCITABINE] | – | pIC50 (CCRF-CEM [2]): 7.40
